Patent US12702715B2, “Targeted RNA degradation allows precision repurposing of protein-targeted small molecule medicines to RNA” (University of Florida Research Foundation, Incorporated, priority 2020, dated 2026)
Entries after “also recorded” stand apart in the source; their conditions may differ.

Key:
pre-miR-21 mutant = test: In vitro Chem-CLIP, pre-miR-21 mutant; type: binding; settings: 1, 5, 20 or 100 μM
Experimental: In Vitro Chemical Cross-linking and Isolation by Pull Down (Chem-CLIP) and Competitive Chem-CLIP (C-Chem-CLIP). Growth medium [RMPI 1640 medium with L-glutamine & 25 mM HEPES (Corning)] was inactivated by heating at 95° C. to for 15 min and slowly cooling to room temperature at benchtop. Pre-miR-21 labeled with ^32P at the 5′-end (~10,000 counts) was folded in growth medium by heating at 95° C. for 1 min and slowly cooling to room temperature. To the samples was added Chem-CLIP probe 4 (1, 5, 20 or 100 μM) or negative control probe 5 (1, 5, 20 or 100 μM), and the mixtures were incubated at 37° C. for 1 h. The samples were then cross-linked by irradiation with 365 nm light for 10 min. The Chem-CLIP probe 4 or control probe 5, whether or not cross-linked to the RNA, was then clicked to disulfide biotin azide (10 mM in DMSO; 10 μL per sample; 1168-10, Click Chemistry Tools) by incubating in a solution containing 1×HEPES buffer (25 mM, pH 7), sodium ascorbate (10 μL/sample, 250 mM in H2O), CuSO4 (10 μL/sample, 50 mM in H2O), THPTA (10 μL/sample, 50 mM in H2O) for 2 h at 37° C. […] The radioactive signal from bound RNAs (on the beads) and unbound RNAs (from the wash steps) were measured by using a Beckman Coulter LS6500 Liquid Scintillation Counter. Enrichment of pre-miR-21 was calculated as previously described^6. […]

RNase L = RNase L (Homo sapiens, UniProt Q05823); test: In vitro RNase L oligomerization; type: biochemical
Experimental: In Vitro RNase L Oligomerization. To a solution of RNase L (3 μM) in 1× RNase L Buffer (add components) was added MgCl2, fresh β-mercaptoethanol, and ATP to final concentrations of 10 mM, 7 mM, and 50 μM respectively. The oligomerization of RNase L induced by small molecules was assessed as previously reported^6. The monomeric and oligomeric RNase L protein was resolved by Western blot and detected using an RNase L primary antibody (1:6000 dilution; Cell Signaling Technology, D4B4J). The blot was incubated with the antibody in 1×TBST (Tris-buffered saline supplemented with 0.1% (v/v) Tween-20) and 5% (w/v) nonfat dry milk at 4° C. overnight. After washing, the blot was incubated with 1:12000 anti-rabbit IgG, HRP-linked Antibody (Cell Signaling Technology, 7074S) in 1×TBST with 5% (w/v) nonfat dry milk for 1 h at room temperature. After washing with 1×TBST for 10 min three times, monomeric and oligomerized RNase L protein was detected by using SuperSignal West Pico Chemiluminescent Substrate (Pierce Biotechnology). ImageJ software was used for quantification.

[1] = molecular target: T1, RNase L / pre-miR-21 ternary complex (Homo sapiens, UniProt Q05823); test: RNase L immunoprecipitation; type: cell-based; settings: 1 μM
T1 construct: endogenous in cells; host or cells: MDA-MB-231
T1 sequence (Q05823 1-741): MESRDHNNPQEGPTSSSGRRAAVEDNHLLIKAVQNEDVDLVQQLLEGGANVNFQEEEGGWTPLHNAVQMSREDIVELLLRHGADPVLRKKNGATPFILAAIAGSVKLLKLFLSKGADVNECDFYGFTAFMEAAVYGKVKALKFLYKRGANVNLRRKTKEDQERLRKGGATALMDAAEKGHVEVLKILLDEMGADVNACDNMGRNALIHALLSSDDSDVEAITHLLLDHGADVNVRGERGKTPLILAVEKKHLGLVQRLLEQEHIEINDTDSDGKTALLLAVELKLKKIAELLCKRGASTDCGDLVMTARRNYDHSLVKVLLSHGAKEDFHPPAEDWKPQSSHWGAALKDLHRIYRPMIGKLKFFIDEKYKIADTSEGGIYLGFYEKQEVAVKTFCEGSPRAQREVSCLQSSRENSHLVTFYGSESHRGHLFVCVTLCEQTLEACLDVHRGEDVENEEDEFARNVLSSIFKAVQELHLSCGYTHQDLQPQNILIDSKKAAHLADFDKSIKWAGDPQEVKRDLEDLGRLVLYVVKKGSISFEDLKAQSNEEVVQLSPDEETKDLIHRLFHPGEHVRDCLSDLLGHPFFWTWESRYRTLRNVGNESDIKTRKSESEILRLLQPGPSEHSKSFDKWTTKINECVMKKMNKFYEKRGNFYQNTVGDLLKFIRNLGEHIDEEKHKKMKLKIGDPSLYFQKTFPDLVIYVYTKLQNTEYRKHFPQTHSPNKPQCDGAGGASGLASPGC
Experimental: RNase L Immunoprecipitation. MDA-MB-231 cells were seed in 6-well plates and were treated with vehicle, 4 (1 μM) or 5 (1 μM) when the cells reached ~70% confluency. After 48 h, the cells were harvested and lysed in 100 μL of M-PER buffer containing protease inhibitor and RNaseOUT recombinant Ribonuclease Inhibitor (Invitrogen) on ice for 20 min. The lysate was centrifuged at 13,000×g for 15 min, and the supernatants were incubated with Dynabeads Protein A (Life Technologies) bound to RNase L mouse primary antibody or β-actin mouse primary antibody overnight at 4° C. After incubation, the beads were washed with 1×DPBS containing 0.02% (v/v) Tween-20, and RNA was extracted by using a miRNeasy Mini Kit (Qiagen) per the manufacturer's instructions. RT-qPCR was performed as described above. Relative RNA levels were determined by ΔΔCt method by normalizing to 18S rRNA levels. Normalized fold change was calculated as previously described^6.

pre-miR-21 = test: In vitro Dicer processing of pre-miR-21; type: biochemical, human
Experimental: In vitro Dicer Processing. The pre-miR-21 WT RNA or pre-miR-21 base pair mutant were 5′-end labeled with T4 polynucleotide kinase and [γ-^32P] ATP as described previously^7. The RNA was folded in 1× Reaction Buffer (Genlantis) by heating at 55° C. for 5 min and cooling slowly to room temperature on the benchtop. The mixture was then supplemented with 2.5 mM MgCl2 and 1 mM ATP. The Dicer processing reaction was performed as described previously^6. The cleavage products were resolved on a 15% polyacrylamide denaturing gel and imaged using a Molecular Dynamics Typhoon phosphorimager and quantified with QuantityOne software from Bio-Rad.

For `C#CCCC1(CCC(=O)NCCN2CCN(c3ccc4[nH]c(-c5c(N)c6c(F)cccc6[nH]c5=O)nc4c3)CC2)N=N1` [Compound 4], the “enrichment of 32P-labeled pre-miR-21 mutant” value (pre-miR-21 mutant) was “not mutant”.
`CCOC(=O)C1=C(Nc2ccccc2)S/C(=C\c2ccc(OCCOCCOCCOCCNC(=O)NCCN3CCN(c4ccc5[nH]c(-c6c(N)c7c(F)cccc7[nH]c6=O)nc5c4)CC3)c(O)c2)C1=O` [Compound 2, Ribotac-Dovitinib] was tested, and the “RNase L oligomerization / dimerization” value (RNase L) was “recruits and dimerizes; also recorded: oligomerized RNase L in a dose dependent manner”, the “enrichment of pre-miR-21 in RNase L immunoprecipitation” value ([1]; MDA-MB-231) was “immunoprecipitated pre-miR-21; also recorded: enriched” and the “enrichment of pre-miR-210 in RNase L immunoprecipitation” value ([1]; pre-miRNA without 1-binding site) was “did not enrich”.
For `CN1CCN(c2ccc3nc(-c4c(N)c5c(F)cccc5[nH]c4=O)[nH]c3c2)CC1` [Compound 1, Dovitinib, reference compound], the “in vitro processing of pre-miR-21” value (pre-miR-21) was “inhibited”.
